Reference: patent US7943186B2, “Hydroxycitric acid compositions, pharmaceutical and dietary supplements and food products made therefrom, and methods for their use in reducing body weight” (Interhealth Nutraceuticals, Inc., priority 1997, dated 2011)

Experiments:
rats = conditions: cited from earlier work
fatty acid synthesis = conditions: biological systems, profused organs and intact mammals; cited from earlier work
Solubility in water = assay type: physicochemical
Hygroscopicity = assay type: physicochemical

Row | Structure (SMILES) | body weight (rats) | lipid accumulation (rats) | inhibition of fatty acid synthesis (fatty acid synthesis) | solubility in water (in words) (Solubility in water) | hygroscopicity (Hygroscopicity)
1 | O=C(O)CC(O)(C(=O)O)C(O)C(=O)O (stereo not shown) [hydroxycitric acid] | significantly reduce the body weight | lower lipid accumulation | substantially inhibit fatty acid synthesis | – | –
2 | O=C([O-])C[C@@](O)(C(=O)[O-])[C@H](O)C(=O)[O-].O=C([O-])C[C@@](O)(C(=O)[O-])[C@H](O)C(=O)[O-].[Ca+2].[Ca+2].[Ca+2] [pure calcium salt] | – | – | – | moderately soluble | minimal hygroscopicity
3 | O=C([O-])C[C@@](O)(C(=O)[O-])[C@H](O)C(=O)[O-].[K+].[K+].[K+] [pure potassium salt] | – | – | – | highly soluble | high hygroscopicity
